From patent US20180024136A1, “Development of ABCG2-Sensitive Fluorescent Probe For Isolation of ABCG2low Neural Stem/Progenitor Cells” (National University of Singapore, priority 2015, published 2018)
Each block holds one compound with its values, some of them ahead of it.

Tests used:
differentiated NS5 cells = experiment: CDg13 staining of differentiated NS5 cells under ABC transporter inhibitors (flow cytometry); format: cell-based, mouse; conditions: inhibitor during staining
Method: (§1) Flow cytometry was performed using Attune Cytometer (Invitrogen). Hoechest33342 (2 μM) and CDg13 (1 μM) are incubated with culture media for 1 hours and detached as single cells. The collected cells were suspended in BSA- and FBS-free DMEM to prevent loss of CDg13 signal. The average fluorescence intensity of total cells in each experimental group was analyzed by Attune cytometer software for quantification study.

human KB3-1 cells = experiment: MTS viability assay on KB3-1 cells; format: cell-based; conditions: 48 h
ABCG2 = biological target: T1, ABCG2 (Homo sapiens, UniProt Q9UNQ0); experiment: Probe fluorescence in ABCG2/KB3-1 cells under Ko143; conditions: ABCG2/KB3-1, 10 to 1,000 nM Ko143
T1 sequence (Q9UNQ0 1-655): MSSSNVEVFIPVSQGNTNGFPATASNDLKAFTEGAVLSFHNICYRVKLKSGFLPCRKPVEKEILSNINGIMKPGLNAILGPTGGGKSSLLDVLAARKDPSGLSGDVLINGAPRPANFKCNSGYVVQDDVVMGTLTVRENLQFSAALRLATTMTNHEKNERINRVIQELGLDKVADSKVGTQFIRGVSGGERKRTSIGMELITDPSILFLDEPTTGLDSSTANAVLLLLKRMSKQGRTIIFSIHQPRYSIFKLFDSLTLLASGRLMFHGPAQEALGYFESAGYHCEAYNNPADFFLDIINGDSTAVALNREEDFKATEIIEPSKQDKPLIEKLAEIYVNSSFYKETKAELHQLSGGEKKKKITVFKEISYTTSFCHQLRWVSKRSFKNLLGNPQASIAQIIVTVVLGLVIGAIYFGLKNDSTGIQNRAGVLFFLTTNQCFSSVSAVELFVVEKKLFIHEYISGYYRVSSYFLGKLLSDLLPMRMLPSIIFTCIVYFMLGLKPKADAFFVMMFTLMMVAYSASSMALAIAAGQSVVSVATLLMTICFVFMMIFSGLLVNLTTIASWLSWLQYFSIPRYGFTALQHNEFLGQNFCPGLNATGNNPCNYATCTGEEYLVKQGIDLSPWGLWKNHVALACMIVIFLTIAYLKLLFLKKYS

ABCB1 = ABCB1 (Homo sapiens, UniProt P08183); experiment: Probe fluorescence in HCT-15 cells under verapamil; conditions: HCT-15, 10 to 10,000 nM verapamil
NS-5 cells = experiment: CDg13 staining of NS5 cells under STF31, ionomycin or Ko143; format: cell-based, mouse; conditions: STF31 2 μM, ionomycin 0.1 μM, Ko143 0.5 μM
Method: FIGS. 7A-7C show CDg13 stains depending on Abcg2 activity: (A) CDg13 (1 μM) were stained for 1 hour in live (A-1) or dead cells treated with 4% PFA (A-2) (representative image of three independent experiments, and (B) and (C) NS5 cells were treated STF31 (2 μM), ionomycin (0.1 μM) or Ko143 (0.5 μM) with treatment of CDg13 and Hoechst33342 under normal media (control had same amount of DMSO (0.2%) with other drugs treated group), staining intensity is shown by epifluorescence microscopy (B) or flow cytometry (C) (bar: 50 μm).
as §1

[1] = Spectroscopic properties of CF library (absorbance, emission, quantum yield, extinction coefficient); format: physicochemical; conditions: 100 μM in ethanol
Method: All the chemicals and solvents were purchased from Sigma Aldrich, Alfa Aesar, Fluka, MERCK, Tocris or Acros, and used without further purification. Normal phase purifications were carried out using Merck Silica Gel 60 (particle size: 0.040-0.063 mm, 230-400 mesh). Analytical characterization was performed on a HPLC-MS (Agilent-1200 series) with a DAD detector and a single quadrupole mass spectrometer (6130 series) with an ESI probe. ^1H-NMR and ^13C-NMR spectra were recorded on Bruker Avance 300 MHz NMR spectrometers, and chemical shifts are expressed in parts per million (ppm) and coupling constants are reported as a J value in Hertz (Hz). High resolution mass spectrometry (HRMS) data was recorded on a Micro mass VG 7035 (Mass Spectrometry Laboratory at National University of Singapore (NUS)). Spectroscopic and quantum yield data were measured on spectroscopic measurements, performed on a fluorometer and UV/VIS instrument, Synergy 4 of Bioteck Company. The slit width was 1 nm for both excitation and emission, and the data analysis was performed using GraphPrism 5.0.

Chain of ABCB1 (P08183 whole entry): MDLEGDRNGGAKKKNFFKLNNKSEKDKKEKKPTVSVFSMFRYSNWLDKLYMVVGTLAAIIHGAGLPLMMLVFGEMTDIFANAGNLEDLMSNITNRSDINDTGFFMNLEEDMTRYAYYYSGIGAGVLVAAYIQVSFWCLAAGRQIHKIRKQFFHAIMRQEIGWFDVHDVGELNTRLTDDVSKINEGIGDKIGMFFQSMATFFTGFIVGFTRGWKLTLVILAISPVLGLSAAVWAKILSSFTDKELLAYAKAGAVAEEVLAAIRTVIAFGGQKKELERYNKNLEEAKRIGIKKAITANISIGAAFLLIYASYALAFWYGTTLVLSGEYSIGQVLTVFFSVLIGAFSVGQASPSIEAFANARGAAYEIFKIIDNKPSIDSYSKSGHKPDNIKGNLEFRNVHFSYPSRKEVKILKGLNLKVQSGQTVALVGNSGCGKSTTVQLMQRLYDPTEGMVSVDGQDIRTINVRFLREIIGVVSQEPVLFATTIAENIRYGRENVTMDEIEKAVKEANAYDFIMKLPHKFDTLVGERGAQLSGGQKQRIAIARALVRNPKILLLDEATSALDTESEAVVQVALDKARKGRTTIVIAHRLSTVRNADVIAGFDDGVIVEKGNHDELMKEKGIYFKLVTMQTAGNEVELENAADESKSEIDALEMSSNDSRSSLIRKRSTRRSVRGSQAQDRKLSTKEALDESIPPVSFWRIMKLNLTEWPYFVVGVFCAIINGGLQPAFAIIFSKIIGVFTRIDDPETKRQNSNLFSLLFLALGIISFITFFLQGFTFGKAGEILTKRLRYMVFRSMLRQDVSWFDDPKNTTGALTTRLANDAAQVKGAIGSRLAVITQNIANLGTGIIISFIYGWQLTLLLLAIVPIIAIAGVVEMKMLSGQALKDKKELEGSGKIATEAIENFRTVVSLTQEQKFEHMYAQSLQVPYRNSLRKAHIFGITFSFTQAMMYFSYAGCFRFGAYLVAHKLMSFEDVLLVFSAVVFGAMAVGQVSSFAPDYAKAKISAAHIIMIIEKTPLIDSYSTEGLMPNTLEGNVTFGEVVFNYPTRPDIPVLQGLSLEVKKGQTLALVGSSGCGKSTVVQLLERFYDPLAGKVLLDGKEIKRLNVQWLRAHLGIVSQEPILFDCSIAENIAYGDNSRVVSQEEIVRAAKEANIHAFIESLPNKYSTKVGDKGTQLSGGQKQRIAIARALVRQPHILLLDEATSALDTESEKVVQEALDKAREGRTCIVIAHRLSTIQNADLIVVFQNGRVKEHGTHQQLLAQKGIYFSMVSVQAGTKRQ

Compound: CN(C)C(=O)CCSC(SCCC(=O)O)c1cccc(/C=C/c2ccc3ccc(Cl)cc3n2)c1 (stereo not drawn) [MK571]
staining of CDg13 versus DMSO control (differentiated NS5 cells): ~1.5 fold

Compound: CCCN(CCC)S(=O)(=O)c1ccc(C(=O)O)cc1 [probenecid]
staining of CDg13 versus DMSO control (differentiated NS5 cells): no effect of probe staining

Compound: CCOc1ccc(-c2nc3ccc(-c4nc5ccc(N6CCN(C)CC6)cc5[nH]4)cc3[nH]2)cc1 [Hoechst 33342]
death rate (human KB3-1 cells; 1 μM): 25%
cell death (human KB3-1 cells; 10 μM): 100%
fold change in fluorescence intensity (ABCG2): up to 1.3 fold
fold change of staining (ABCB1): up to 1.5 fold

Compound: COc1cc2c(cc1OC)CN(CCc1ccc(NC(=O)c3cccc4c(=O)c5cccc(OC)c5[nH]c34)cc1)CC2 [Elacridar, elacridar]
staining of CDg13 versus DMSO control (differentiated NS5 cells): around 2.5 fold

Compound: COc1ccc(CCN(C)CCCC(C#N)(c2ccc(OC)c(OC)c2)C(C)C)cc1OC (stereo not drawn) [verapamil]
staining of CDg13 versus DMSO control (differentiated NS5 cells): no effect of probe staining

Compound: Rhodamine123
fold change in fluorescence intensity (ABCG2): did not increase
fold change of staining (ABCB1): up to 4.0 fold

Compound: COc1ccc2c3c([nH]c2c1)[C@H](CC(C)C)N1C(=O)[C@H](CCC(=O)OC(C)(C)C)NC(=O)[C@@H]1C3 [Ko143]
effect on CDg13 staining (NS-5 cells): stained CDg13 more strongly than normal NS-5 cells
staining of CDg13 versus DMSO control (differentiated NS5 cells): around 2.5 fold

Abs (nm) [1]: 520 nm
Em (nm) [1]: 555 nm
QY (Φ) ([1]; reference fluorescein): 0.32
Compound: CCCCCCCCCCCCCCCCCCNC(=O)c1ccc(-c2c3cc(Cl)c(=O)cc-3oc3cc(O)c(Cl)cc23)cc1 [CF-D6]
